In PMC5025651, “Reprofiled anthelmintics abate hypervirulent stationary-phase Clostridium difficile” (Scientific Reports, 2016):
Converted amounts (≈) assume the structure as drawn. Where two headings read alike, the source gives them in different places.

How the values were obtained:
[1] = tested on: B. fragilis Strain CL05T00C42; test: MIC by broth microdilution; assay type: cell-based; details: Bacteroides fragilis
[2] = tested on: C. difficile isolate 20121412 (ribotype 047); test: MIC by broth microdilution; assay type: cell-based, Clostridium difficile; details: Clostridioides difficile
[3] = tested on: C. difficile isolate 20110986 (ribotype 078); test: MIC by broth microdilution; assay type: cell-based, Clostridium difficile; details: Clostridioides difficile
C. sporogenes ATCC 15579 = test: MIC by broth microdilution; assay type: cell-based; details: Clostridium sporogenes, ATCC15579, BHIS, anaerobic, duplicate
A. baumannii M2 = test: MIC by broth microdilution; assay type: cell-based; details: Acinetobacter baumannii
L. plantarum ATCC 8014 = test: MIC by broth microdilution; assay type: cell-based; details: Lactiplantibacillus plantarum
[4] = tested on: B. thetaiotaomicron ATCC 29148; test: microbe, parasite or virus in culture; assay type: cell-based; details: Bacteroides thetaiotaomicron, ATCC29148
C. difficile strain 4118 [5] = test: Minimum bactericidal concentration (MBC), logarithmic- and stationary-phase cells; assay type: cell-based, Clostridium difficile
Method: The procedure for MBC determination was adapted from that of Alam et al.[44]. Briefly, a single overnight colony of C. difficile strain 4118 (streaked onto blood agar plate) was suspended in BHIS and grown to OD600 ~ 0.4–0.5 (logarithmic phase) or for 24 h (stationary phase). In 96-well microtiter plates, cultures were added to two-fold serial dilutions of test compounds in BHIS and incubated for 20–24 h at 37 °C in an anaerobic chamber. […] MBC measurements were performed in duplicate.

[6] = tested on: C. difficile isolate 20110960 (ribotype 017); test: MIC by broth microdilution; assay type: cell-based, Clostridium difficile; details: Clostridioides difficile
[7] = tested on: C. difficile isolate 20120016 (ribotype 019); test: MIC by broth microdilution; assay type: cell-based, Clostridium difficile; details: Clostridioides difficile
[8] = tested on: C. difficile strain 4118 (CD4118, ATCC BAA-1870, ribotype 027); test: MIC by broth microdilution; assay type: cell-based, Clostridium difficile; details: for MIC: Clostridioides difficile
[9] = tested on: C. difficile isolate 20110740 (ribotype 018); test: MIC by broth microdilution; assay type: cell-based, Clostridium difficile; details: Clostridioides difficile
[10] = tested on: C. difficile isolate 20110742 (ribotype 002); test: MIC by broth microdilution; assay type: cell-based, Clostridium difficile; details: Clostridioides difficile
C. difficile strain 4118 [11] = test: Time-kill kinetics against stationary-phase cultures; assay type: cell-based, Clostridium difficile
Method: At t = 0, 3, 6 and 24 h, sample aliquots were withdrawn from the treated cultures and bacterial viability was scored by plating serial dilutions on BHIS agar plates. The agar plates were incubated in the anaerobic chamber for 20–24 h at 37 °C. Kinetic experiments were performed at least twice.

P. distasonis ATCC 8503 = test: MIC by broth microdilution; assay type: cell-based; details: Parabacteroides distasonis, ATCC8503
[12] = tested on: C. difficile isolate 20100422 (ribotype 054); test: MIC by broth microdilution; assay type: cell-based, Clostridium difficile; details: Clostridioides difficile
[13] = tested on: L. johnsonii Strain 135-1-CHN; test: MIC by broth microdilution; assay type: cell-based; details: Lactobacillus johnsonii, STRAIN1351CHN
S. aureus RN4220 = test: MIC by broth microdilution; assay type: cell-based; details: Staphylococcus aureus, CAMHB, aerobic, duplicate
16 C. difficile isolates = test: MIC by broth microdilution, summary over 16 C. difficile isolates; assay type: cell-based, Clostridium difficile; details: for MIC50 / MIC90: Clostridioides difficile; for MIC Range: range over 16 C. difficile isolates
[14] = tested on: C. difficile isolate 20110973 (ribotype 106); test: MIC by broth microdilution; assay type: cell-based, Clostridium difficile; details: Clostridioides difficile
P. nigrescens ATCC 33563 = test: MIC by broth microdilution; assay type: cell-based; details: Prevotella nigrescens, ATCC33563
B. subtilis ATCC 6051 = test: MIC by broth microdilution; assay type: cell-based; details: Bacillus subtilis, ATCC6051
[15] = tested on: B. breve Strain EX336960VC19; test: MIC by broth microdilution; assay type: cell-based; details: Bifidobacterium breve
[16] = tested on: C. difficile isolate 20110869 (ribotype 001_072); test: MIC by broth microdilution; assay type: cell-based, Clostridium difficile; details: Clostridioides difficile
[17] = tested on: C. difficile isolate 20100584 (ribotype 014); test: MIC by broth microdilution; assay type: cell-based, Clostridium difficile; details: Clostridioides difficile
Hemolysis assay = assay type: cell-based; details: sheep, pH 7.4, 32 µg/mL, 1 h, 37 °C, 1% Triton X-100 positive control, triplicate, read-out: Hemolysis (%)
Method: Sheep red blood cells (Innovative Research, Novi, MI, USA) were washed three times with PBS pH 7.4. A 3% cell suspension in PBS (100 μL) was added to test compounds in PBS (100 μL, to a final concentration of 32 μg/mL), and then incubated at 37 °C for 1 h. The plate was centrifuged at 500 × g for 10 min, and supernatants (100 μL) were transferred to a clean 96-well plate. Hemolysis was determined by measuring absorbance at 540 nm, with 1% Triton X-100 as the positive control and 0.5% DMSO in PBS as the negative control. Hemolysis assays were performed in triplicate.

[18] = tested on: C. clostridioforme ATCC 25537; test: MIC by broth microdilution; assay type: cell-based, Clostridium clostridioforme; details: Clostridium, ATCC25537
S. epidermidis 1457 = test: MIC by broth microdilution; assay type: cell-based; details: Staphylococcus epidermidis
[19] = tested on: B. longum subsp. longum Strain 44B; test: MIC by broth microdilution; assay type: cell-based; details: Bifidobacterium longum
[20] = tested on: L. reuteri Strain CF48-3A; test: MIC by broth microdilution; assay type: cell-based, Lactobacillus reuteri; details: Limosilactobacillus reuteri
[21] = tested on: C. difficile isolate 20110566 (ribotype 020); test: MIC by broth microdilution; assay type: cell-based, Clostridium difficile; details: Clostridioides difficile

Cc1ncc([N+](=O)[O-])n1CCO [Metronidazole, metronidazole]
MIC ([1]; B. fragilis CL05T00C42, supplemented Brucella broth, anaerobic, duplicate, read-out: MIC): 0.5 µg/mL (≈ 2.92 µM) | MIC ([2]; isolate 20121412, ribotype 047, duplicate, read-out: MIC): 0.25 µg/mL (≈ 1.46 µM) | MIC ([3]; isolate 20110986, ribotype 078, duplicate, read-out: MIC): 0.13 to 0.25 µg/mL (≈ 0.76 to 1.46 µM) | MIC (C. sporogenes ATCC 15579): 0.25 µg/mL (≈ 1.46 µM) | MIC (A. baumannii M2; A. baumannii M2, CAMHB, aerobic, duplicate, read-out: MIC): > 32 µg/mL | MIC (L. plantarum ATCC 8014; ATCC8014, L. plantarum ATCC 8014, CAMHB with 5% laked horse blood, ~48 h, duplicate, read-out: MIC): > 32 µg/mL | MIC [4]: 1 µg/mL (≈ 5.84 µM) | MBC (C. difficile strain 4118 [5]; Clostridioides difficile, 4118, minimum bactericidal concentration (≥3-log reduction) for logarithmic-phase cells, 20–24 h, n = 2, read-out: MBClog): > 32 µg/mL | MBC (C. difficile strain 4118 [5]; Clostridioides difficile, 4118, minimum bactericidal concentration (≥3-log reduction) for stationary-phase cells, 20–24 h, n = 2, read-out: MBCstat): > 32 µg/mL | log reduction of CD4118 stationary-phase cells (C. difficile strain 4118 [5]; at 32 μg/mL, 20–24 h): < 3 log | MIC ([6]; isolate 20110960, ribotype 017, duplicate, read-out: MIC): 0.25 µg/mL (≈ 1.46 µM) | MIC ([7]; isolate 20120016, ribotype 019, duplicate, read-out: MIC): 0.25 µg/mL (≈ 1.46 µM) | MIC ([8]; ATCCBAA1870, BHIS broth, anaerobic, 20–24 h, n = 2, read-out: MIC C. difficile 4118): 0.25 µg/mL (≈ 1.46 µM) | MIC ([9]; isolate 20110740, ribotype 018, duplicate, read-out: MIC): 0.25 µg/mL (≈ 1.46 µM) | MIC ([10]; isolate 20110742, ribotype 002, duplicate, read-out: MIC): 0.13 µg/mL (≈ 0.76 µM) | log killing of CD4118 stationary-phase cells (C. difficile strain 4118 [11]; 16× MIC (metronidazole 4 μg/mL, vancomycin 32 μg/mL), up to 24 h): < 3 log | MIC (P. distasonis ATCC 8503; P. distasonis ATCC 8503, supplemented Brucella broth, anaerobic, duplicate, read-out: MIC): 2 µg/mL (≈ 11.7 µM) | MIC ([12]; isolate 20100422, ribotype 054, duplicate, read-out: MIC): 0.25 µg/mL (≈ 1.46 µM) | MIC ([13]; L. johnsonii 135-1-CHN, CAMHB with 5% laked horse blood, ~48 h, duplicate, read-out: MIC): > 32 µg/mL | MIC (S. aureus RN4220): > 32 µg/mL | MIC50 (16 C. difficile isolates; MIC at which 50% of the 16 isolates are inhibited, n = 2, read-out: MIC50): 0.25 µg/mL (≈ 1.46 µM) | MIC90 (16 C. difficile isolates; MIC at which 90% of the 16 isolates are inhibited, n = 2, read-out: MIC90): 0.25 µg/mL (≈ 1.46 µM) | MIC Range (16 C. difficile isolates; n = 2): 0.13 to 0.25 µg/mL | MIC ([14]; isolate 20110973, ribotype 106, duplicate, read-out: MIC): 0.25 µg/mL (≈ 1.46 µM) | MIC (P. nigrescens ATCC 33563; P. nigrescens ATCC 33563, supplemented Brucella broth, anaerobic, duplicate, read-out: MIC): 2 µg/mL (≈ 11.7 µM) | MIC (B. subtilis ATCC 6051; B. subtilis ATCC 6051, CAMHB, aerobic, duplicate, read-out: MIC): > 32 µg/mL | MIC ([15]; B. breve EX336960VC19, LSM broth, anaerobic, duplicate, read-out: MIC): > 32 µg/mL | MIC ([16]; isolate 20110869, ribotype 001_072, duplicate, read-out: MIC): 0.25 µg/mL (≈ 1.46 µM) | MIC ([17]; isolate 20100584, ribotype 014, duplicate, read-out: MIC): 0.25 µg/mL (≈ 1.46 µM) | hemolysis at 1 h, 32 µg/mL (Hemolysis assay; sheep red blood cells (3% suspension)): < 1% | MIC ([18]; C. clostridioforme ATCC 25537, BHIS, anaerobic, duplicate, read-out: MIC): 0.06 µg/mL (≈ 0.351 µM) | MIC (S. epidermidis 1457; S. epidermidis 1457, CAMHB, aerobic, duplicate, read-out: MIC): > 32 µg/mL | MIC ([19]; B. longum subsp. longum 44B, LSM broth, anaerobic, duplicate, read-out: MIC): 4 to 8 µg/mL (≈ 23.4 to 46.7 µM) | MIC ([20]; L. reuteri CF48-3A, CAMHB with 5% laked horse blood, ~48 h, duplicate, read-out: MIC): > 32 µg/mL | MIC ([21]; isolate 20110566, ribotype 020, duplicate, read-out: MIC): 0.25 µg/mL (≈ 1.46 µM)

O=C(Nc1ccc(Oc2ccc(Cl)cc2)c(Cl)c1)c1cc(I)cc(I)c1O [Rafoxanide, rafoxanide]
MIC [1]: 32 µg/mL (≈ 51.1 µM) | MIC [2]: 0.03 µg/mL (≈ 0.0479 µM) | MIC [3]: 0.06 to 0.13 µg/mL (≈ 0.0958 to 0.208 µM) | MIC (C. sporogenes ATCC 15579): 1 µg/mL (≈ 1.6 µM) | MIC (A. baumannii M2; M2): > 32 µg/mL | MIC (L. plantarum ATCC 8014; ATCC8014, 48 h): 32 µg/mL (≈ 51.1 µM) | MIC [4]: > 32 µg/mL | MBC (C. difficile strain 4118 [5]; Clostridioides difficile, 4118, read-out: MBClog): 0.5 µg/mL (≈ 0.799 µM) | MBC (C. difficile strain 4118 [5]; Clostridioides difficile, 4118, read-out: MBCstat): 1 µg/mL (≈ 1.6 µM) | MIC [6]: 0.06 µg/mL (≈ 0.0958 µM) | MIC [7]: 0.13 µg/mL (≈ 0.208 µM) | MIC C. difficile 4118 ([8]; BHIS broth, anaerobic, 20–24 h, n = 2): 0.13 µg/mL (≈ 0.208 µM) | MIC ([8]; ATCCBAA1870, read-out: MIC C. difficile 4118): 0.13 µg/mL (≈ 0.208 µM) | MIC [9]: 0.06 µg/mL (≈ 0.0958 µM) | MIC [10]: 0.06 µg/mL (≈ 0.0958 µM) | log decrease in the number of CFUs (C. difficile strain 4118 [11]; 4 × MIC, 24 h, stationary-phase CD4118): 2.7 log | time to eradicate >99.9% of viable cells (C. difficile strain 4118 [11]; 16× MIC (rafoxanide 2 μg/mL, closantel 4 μg/mL, compound 8 1 μg/mL), stationary-phase CD4118): 6 h | MIC (P. distasonis ATCC 8503): 8 µg/mL (≈ 12.8 µM) | MIC [12]: 0.13 µg/mL (≈ 0.208 µM) | MIC ([13]; 48 h): 32 µg/mL (≈ 51.1 µM) | MIC (S. aureus RN4220): 0.25 µg/mL (≈ 0.399 µM) | MIC50 (16 C. difficile isolates): 0.06 µg/mL (≈ 0.0958 µM) | MIC90 (16 C. difficile isolates): 0.13 µg/mL (≈ 0.208 µM) | MIC Range (16 C. difficile isolates; n = 2): 0.03 to 0.13 µg/mL | MIC [14]: 0.06 µg/mL (≈ 0.0958 µM) | MIC (P. nigrescens ATCC 33563): 8 µg/mL (≈ 12.8 µM) | MIC (B. subtilis ATCC 6051): ≤ 0.03 µg/mL | MIC [15]: 16 to 32 µg/mL (≈ 25.6 to 51.1 µM) | MIC [16]: 0.13 µg/mL (≈ 0.208 µM) | MIC [17]: 0.06 µg/mL (≈ 0.0958 µM) | hemolysis at 1 h, 32 µg/mL (Hemolysis assay): < 1% | MIC [18]: 1 µg/mL (≈ 1.6 µM) | MIC (S. epidermidis 1457; 1457): ≤ 0.03 µg/mL | MIC [19]: 8 µg/mL (≈ 12.8 µM) | MIC ([20]; 48 h): 16 µg/mL (≈ 25.6 µM) | MIC [21]: 0.06 µg/mL (≈ 0.0958 µM)
